These results are taken from patent US7402601B2, “Pharmaceuticals for the treatment of rejection reactions in organ transplantations” (Sanofi-Aventis Deutschland GmbH, priority 1991, dated 2008).

Data set [1] in a line: in vivo. The following applies: ip. On the procedure:
Acute Toxicity after Intraperitoneal Administration
The acute toxicity after intraperitoneal administration of the test substances was determined with NMRI mice (20 to 25 g) and SD rats (120 to 195 g). The test substance was suspended in a 1% strength sodium carboxymethyl-cellulose solution. The different dosages of the test substance were administered to the mice in a volume of 10 ml/kg of body weight and to the rats in a volume of 5 ml/kg of body weight. Per dosage, 10 animals were used. After 3 weeks, the acute toxicity was determined by the method of Litchfield and Wilcoxon.

Data set [2] relates to allophilic antibodies. As to the kind of experiment: Formation of allophilic antibodies after heart transplantation (Brown-Norway to Lewis rats), complement cytotoxicity on donor spleen cells, Trypan Blue exclusion. It is filed as in vivo. On the procedure:
The action of compound 2 on the formation of allophilic antibodies.
Male Brown-Norway rats with a weight of 200 to 250 g are used as heart donors. The hearts are transplanted into male Lewis rats of the same weight. All rats are supplied with a standard diet and water and kept in an environment with 12 hours of light and darkness.
[…] The titer of allophilic antibodies in the blood of the recipient rats is determined by incubating various dilutions of the recipient blood with spleen cells of the donor rats (Brown-Norway rats) and rabbit complement. The cytotoxicity is determined by the Trypan Blue exclusion method. The p value for the antibodies is determined using the standard t-test and compared with the untreated control animals.
Treatment with compound 2 begins on the 4th day after transplantation. 10 mg/kg of compound 2 in each case are administered i.p. once per day. The number of animals which are simultaneously treated is 5 (n=5). Treatment ends on the 17th day.

In data set [3] the test system is naturally occurring xenophilic antibodies (NXA). The data set is described as follows: Naturally occurring xenophilic antibodies (NXA) in non-sensitized rats, flow cytometry. It is filed as in vivo. The following applies: non-sensitized LEW rats, 10 mg/kg every day i.p., 11th day. On the procedure:
2 to 3 month-old rats (LEW) are intraperitoneally (i.p.) sensitized with 2×10^7 human peripheral blood lymphocytes. The i.p. administration of compound 2 starts 4 days before sensitization and ends 10 days after sensitization of the rats. Serum samples are taken from the tail vein and stored at −80° C.; the activity of complement is avoided by heat deactivation.
The naturally occurring xenophilic antibodies (NXA) and the xenophilic antibodies induced by sensitization (SXA) are titrated and live human peripheral blood lymphocytes are added (45 min. at 20° C.). After intensive washing, FITC-labeled goat-anti-rat IgG or IgM antibodies are added and the binding to SXA or NXA is quantitatively determined by flow cytometry (FACScan, Becton Dickinson).
The serum of male LEW rats contain NXA which bind to vital human peripheral blood lymphocytes, to be precise usually with an average IgM titer of 1:4 and an average IgG titer of less than 1:1. The rats (n=8) which are treated every day with 10 mg/kg of compound 2, show a 30% reduction in their IgG titer and a 50% reduction in their IgM titer on the 11th day.

As for `Cc1oncc1C(=O)Nc1ccc(C(F)(F)F)cc1` [Compound 1, N-(4-trifluoromethyl)-5-methylisoxazole-4-carboxanilide], the median lethal dose (LD50) (as a rule, the dose at which mortality reaches 50%) at 3 weeks in data set [1] (NMRI, mouse) turned out to be 185 mg/kg; in data set [1] (SD, rat), 170 mg/kg.
Regarding `C/C(O)=C(\C#N)C(=O)Nc1ccc(C(F)(F)F)cc1` [Compound 2, N-(4-trifluoromethylphenyl)-2-cyano-3-hydroxycrotonamide], the “mean of the cytotoxicity values” in data set [2] (serum dilution 1:5, day 0 after transplantation (before treatment start on day 4), 10 mg/kg i.p. once per day) is reported as 3%; in data set [2] (serum dilution 1:5, day 4 after transplantation (treatment begins), 10 mg/kg i.p. once per day) it was 63%; in data set [2] (serum dilution 1:5, day 7 after transplantation, 10 mg/kg i.p. once per day from day 4) it was 36%; in data set [2] (serum dilution 1:5, day 11 after transplantation, 10 mg/kg i.p. once per day from day 4), 19%; in data set [2] (serum dilution 1:5, day 14 after transplantation, 10 mg/kg i.p. once per day from day 4), 22%; in data set [2] (serum dilution 1:5, day 17 after transplantation, 10 mg/kg i.p. once per day from day 4) it was 11%. Also, the “mean of the cytotoxicity values” in data set [2] (serum dilution 1:25, day 0 after transplantation (before treatment start on day 4), 10 mg/kg i.p. once per day) came out at 3%; in data set [2] (serum dilution 1:25, day 4 after transplantation (treatment begins), 10 mg/kg i.p. once per day) it was 58%; in data set [2] (serum dilution 1:25, day 7 after transplantation, 10 mg/kg i.p. once per day from day 4), 31%; in data set [2] (serum dilution 1:25, day 11 after transplantation, 10 mg/kg i.p. once per day from day 4) it was 16%; in data set [2] (serum dilution 1:25, day 14 after transplantation, 10 mg/kg i.p. once per day from day 4), 11%; in data set [2] (serum dilution 1:25, day 17 after transplantation, 10 mg/kg i.p. once per day from day 4), 6%. Also, the “mean of the cytotoxicity values” in data set [2] (serum dilution 1:125, day 0 after transplantation (before treatment start on day 4), 10 mg/kg i.p. once per day) is on record as 4%; in data set [2] (serum dilution 1:125, day 4 after transplantation (treatment begins), 10 mg/kg i.p. once per day) it was 34%; in data set [2] (serum dilution 1:125, day 7 after transplantation, 10 mg/kg i.p. once per day from day 4) it was 20%; in data set [2] (serum dilution 1:125, day 11 after transplantation, 10 mg/kg i.p. once per day from day 4), 9%; in data set [2] (serum dilution 1:125, day 14 after transplantation, 10 mg/kg i.p. once per day from day 4), 6%; in data set [2] (serum dilution 1:125, day 17 after transplantation, 10 mg/kg i.p. once per day from day 4) it was 5%. The median lethal dose (LD50) at 3 weeks in data set [1] (NMRI, mouse) stood at 150 mg/kg. In data set [3], the “reduction in IgG titer (NXA)” value was 30%. Further, in data set [3], the “reduction in IgM titer (NXA)” value is reported as 50%.
